Reference: US20160158317A1, “Antimicrobial Peptide Variants and Polynucleotides Encoding Same” (Adenium Biotech A/S, priority 2010, published 2016)
Where a SMILES comes first, the peptide text is derived from it. Bridges are numbered along the chain shown (N, C = ends).

experiment: Determination of the protein binding (90% serum, 30 kDa filter, HPLC); assay type: in vitro ADME; conditions: serum
Description: Protein binding assays were performed as follows. The purified peptides were mixed with 90% serum and centrifuged through a 30 kDa filter. The ultra-filtrate and the non filtrated serum samples were quantified by HPLC measurements and the protein binding was subsequently calculated.

Q: For `CC(C)[C@@H]1NC(=O)CNC(=O)[C@H](CC(N)=O)NC(=O)[C@H](CCCNC(=N)N)NC(=O)[C@H](Cc2ccc(O)cc2)NC(=O)[C@H](C(C)C)NC(=O)[C@@H]2CSSC[C@H](NC(=O)[C@H](Cc3ccccc3)NC(=O)[C@H](CCCNC(=N)N)NC1=O)C(=O)N[C@@H](Cc1c[nH]cn1)C(=O)N[C@@H](CCCNC(=N)N)C(=O)N[C@@H](CCCNC(=N)N)C(=O)N[C@H](C(=O)N[C@@H](CC(N)=O)C(=O)O)CSSC[C@H](NC(=O)[C@H](Cc1ccccc1)NC(=O)CN)C(=O)N[C@@H](Cc1c[nH]c3ccccc13)C(=O)N[C@@H](CC(N)=O)C(=O)N[C@@H](C(C)C)C(=O)N2` [compound 245] (H-GFCWNVCVYRNGVRFCHRRCN-OH; disulfide 3-20, 7-16 (inferred); N-terminus and C-terminus assumed), which fraction unbound is on record?
A: 0.15

Q: With `CC(C)[C@@H]1NC(=O)CNC(=O)[C@H](CC(N)=O)NC(=O)[C@H](CCCNC(=N)N)NC(=O)[C@H](Cc2ccc(O)cc2)NC(=O)[C@H](C(C)C)NC(=O)[C@@H]2CSSC[C@H](NC(=O)CNC(=O)[C@H](CCCNC(=N)N)NC1=O)C(=O)N[C@@H](Cc1c[nH]cn1)C(=O)N[C@@H](CCCNC(=N)N)C(=O)N[C@@H](CCCNC(=N)N)C(=O)N[C@H](C(=O)N[C@@H](CC(N)=O)C(=O)O)CSSC[C@H](NC(=O)[C@H](Cc1ccccc1)NC(=O)CN)C(=O)N[C@@H](Cc1c[nH]c3ccccc13)C(=O)N[C@@H](CC(N)=O)C(=O)N[C@@H](C(C)C)C(=O)N2` [compound 246] (H-GFCWNVCVYRNGVRGCHRRCN-OH; disulfide 3-20, 7-16 (inferred); N-terminus and C-terminus assumed) as the compound, how does the fraction unbound read?
A: 0.21

Q: For `CC[C@H](C)[C@@H]1NC(=O)[C@H](CCCNC(=N)N)NC(=O)[C@H](C(C)C)NC(=O)CNC(=O)[C@H](CC(N)=O)NC(=O)[C@H](CCCNC(=N)N)NC(=O)[C@H](Cc2ccc(O)cc2)NC(=O)[C@H](C(C)C)NC(=O)[C@@H]2CSSC[C@H](NC1=O)C(=O)N[C@@H](Cc1c[nH]cn1)C(=O)N[C@@H](CCCNC(=N)N)C(=O)N[C@@H](CCCNC(=N)N)C(=O)N[C@H](C(=O)N[C@@H](CC(N)=O)C(=O)O)CSSC[C@H](NC(=O)[C@H](Cc1ccccc1)NC(=O)CN)C(=O)N[C@@H](Cc1c[nH]c3ccccc13)C(=O)N[C@@H](CC(N)=O)C(=O)N[C@@H](C(C)C)C(=O)N2` [compound 248] (H-GFCWNVCVYRNGVRICHRRCN-OH; disulfide 3-20, 7-16 (inferred); N-terminus and C-terminus assumed), which fraction unbound is on record?
A: 0.42

Q: With `CC(C)C[C@@H]1NC(=O)[C@H](CCCNC(=N)N)NC(=O)[C@H](C(C)C)NC(=O)CNC(=O)[C@H](CC(N)=O)NC(=O)[C@H](CCCNC(=N)N)NC(=O)[C@H](Cc2ccc(O)cc2)NC(=O)[C@H](C(C)C)NC(=O)[C@@H]2CSSC[C@H](NC1=O)C(=O)N[C@@H](Cc1c[nH]cn1)C(=O)N[C@@H](CCCNC(=N)N)C(=O)N[C@@H](CCCNC(=N)N)C(=O)N[C@H](C(=O)N[C@@H](CC(N)=O)C(=O)O)CSSC[C@H](NC(=O)[C@H](Cc1ccccc1)NC(=O)CN)C(=O)N[C@@H](Cc1c[nH]c3ccccc13)C(=O)N[C@@H](CC(N)=O)C(=O)N[C@@H](C(C)C)C(=O)N2` [compound 249] (H-GFCWNVCVYRNGVRLCHRRCN-OH; disulfide 3-20, 7-16 (inferred); N-terminus and C-terminus assumed) as the compound, how does the fraction unbound read?
A: 0.17

Q: Which fraction unbound does the source give for `CC(C)[C@@H]1NC(=O)CNC(=O)[C@H](CC(N)=O)NC(=O)[C@H](CCCNC(=N)N)NC(=O)[C@H](Cc2ccc(O)cc2)NC(=O)[C@H](C(C)C)NC(=O)[C@@H]2CSSC[C@H](NC(=O)[C@H](CC(N)=O)NC(=O)[C@H](CCCNC(=N)N)NC1=O)C(=O)N[C@@H](Cc1c[nH]cn1)C(=O)N[C@@H](CCCNC(=N)N)C(=O)N[C@@H](CCCNC(=N)N)C(=O)N[C@H](C(=O)N[C@@H](CC(N)=O)C(=O)O)CSSC[C@H](NC(=O)[C@H](Cc1ccccc1)NC(=O)CN)C(=O)N[C@@H](Cc1c[nH]c3ccccc13)C(=O)N[C@@H](CC(N)=O)C(=O)N[C@@H](C(C)C)C(=O)N2` [compound 251] (H-GFCWNVCVYRNGVRNCHRRCN-OH; disulfide 3-20, 7-16 (inferred); N-terminus and C-terminus assumed) here?
A: 0.29

Q: With `CC(C)[C@@H]1NC(=O)CNC(=O)[C@H](CC(N)=O)NC(=O)[C@H](CCCNC(=N)N)NC(=O)[C@H](Cc2ccc(O)cc2)NC(=O)[C@H](C(C)C)NC(=O)[C@@H]2CSSC[C@H](NC(=O)[C@H](CCCNC(=N)N)NC(=O)[C@H](CCCNC(=N)N)NC1=O)C(=O)N[C@@H](Cc1c[nH]cn1)C(=O)N[C@@H](CCCNC(=N)N)C(=O)N[C@@H](CCCNC(=N)N)C(=O)N[C@H](C(=O)N[C@@H](CC(N)=O)C(=O)O)CSSC[C@H](NC(=O)[C@H](Cc1ccccc1)NC(=O)CN)C(=O)N[C@@H](Cc1c[nH]c3ccccc13)C(=O)N[C@@H](CC(N)=O)C(=O)N[C@@H](C(C)C)C(=O)N2` [compound 252] (H-GFCWNVCVYRNGVRRCHRRCN-OH; disulfide 3-20, 7-16 (inferred); N-terminus and C-terminus assumed) as the compound, how does the fraction unbound read?
A: 0.24

Q: For `CC(C)[C@@H]1NC(=O)CNC(=O)[C@H](CC(N)=O)NC(=O)[C@H](CCCNC(=N)N)NC(=O)[C@H](Cc2ccc(O)cc2)NC(=O)[C@H](C(C)C)NC(=O)[C@@H]2CSSC[C@H](NC(=O)[C@H](Cc3c[nH]c4ccccc34)NC(=O)[C@H](CCCNC(=N)N)NC1=O)C(=O)N[C@@H](Cc1c[nH]cn1)C(=O)N[C@@H](CCCNC(=N)N)C(=O)N[C@@H](CCCNC(=N)N)C(=O)N[C@H](C(=O)N[C@@H](CC(N)=O)C(=O)O)CSSC[C@H](NC(=O)[C@H](Cc1ccccc1)NC(=O)CN)C(=O)N[C@@H](Cc1c[nH]c3ccccc13)C(=O)N[C@@H](CC(N)=O)C(=O)N[C@@H](C(C)C)C(=O)N2` [compound 253] (H-GFCWNVCVYRNGVRWCHRRCN-OH; disulfide 3-20, 7-16 (inferred); N-terminus and C-terminus assumed), which fraction unbound is on record?
A: 0.06

Q: For `CC(C)[C@@H]1NC(=O)CNC(=O)[C@H](CC(N)=O)NC(=O)[C@H](CCCNC(=N)N)NC(=O)[C@H](Cc2ccc(O)cc2)NC(=O)[C@H](C(C)C)NC(=O)[C@@H]2CSSC[C@H](NC(=O)[C@H](Cc3ccc(O)cc3)NC(=O)[C@H](CCCNC(=N)N)NC1=O)C(=O)N[C@@H](Cc1c[nH]cn1)C(=O)N[C@@H](CCCNC(=N)N)C(=O)N[C@@H](CCCNC(=N)N)C(=O)N[C@H](C(=O)N[C@@H](CC(N)=O)C(=O)O)CSSC[C@H](NC(=O)[C@H](Cc1ccccc1)NC(=O)CN)C(=O)N[C@@H](Cc1c[nH]c3ccccc13)C(=O)N[C@@H](CC(N)=O)C(=O)N[C@@H](C(C)C)C(=O)N2` [compound 254] (H-GFCWNVCVYRNGVRYCHRRCN-OH; disulfide 3-20, 7-16 (inferred); N-terminus and C-terminus assumed), which fraction unbound is on record?
A: 0.23

Q: For `CC(C)[C@@H]1NC(=O)CNC(=O)[C@H](CC(N)=O)NC(=O)[C@H](CCCNC(=N)N)NC(=O)[C@H](CCCCN)NC(=O)[C@H](C(C)C)NC(=O)[C@@H]2CSSC[C@H](NC(=O)[C@H](C(C)C)NC(=O)[C@H](CCCNC(=N)N)NC1=O)C(=O)N[C@@H](Cc1ccc(O)cc1)C(=O)N[C@@H](CCCNC(=N)N)C(=O)N[C@@H](CCCNC(=N)N)C(=O)N[C@H](C(=O)N[C@@H](CC(N)=O)C(=O)O)CSSC[C@H](NC(=O)[C@H](Cc1ccccc1)NC(=O)CN)C(=O)N[C@@H](Cc1c[nH]c3ccccc13)C(=O)N[C@@H](CC(N)=O)C(=O)N[C@@H](C)C(=O)N2` [compound 258] (H-GFCWNACVKRNGVRVCYRRCN-OH; disulfide 3-20, 7-16 (inferred); N-terminus and C-terminus assumed), which fraction unbound is on record?
A: 0.11

Q: With `CC(C)[C@@H]1NC(=O)CNC(=O)[C@H](CC(N)=O)NC(=O)[C@H](CCCNC(=N)N)NC(=O)[C@H](Cc2ccc(O)cc2)NC(=O)[C@H](C(C)C)NC(=O)[C@@H]2CSSC[C@H](NC(=O)[C@H](C(C)C)NC(=O)[C@H](CCCNC(=N)N)NC1=O)C(=O)N[C@@H](Cc1c[nH]cn1)C(=O)N[C@@H](CCCNC(=N)N)C(=O)N[C@@H](CCCNC(=N)N)C(=O)N[C@H](C(=O)N[C@@H](CC(N)=O)C(=O)O)CSSC[C@H](NC(=O)[C@H](Cc1ccccc1)NC(=O)CN)C(=O)N[C@@H](Cc1c[nH]c3ccccc13)C(=O)N[C@@H](CC(N)=O)C(=O)N[C@@H](Cc1ccccc1)C(=O)N2` [compound 260] (H-GFCWNFCVYRNGVRVCHRRCN-OH; disulfide 3-20, 7-16 (inferred); N-terminus and C-terminus assumed) as the compound, how does the fraction unbound read?
A: 0.16

Q: Which fraction unbound does the source give for `CC[C@H](C)[C@@H]1NC(=O)[C@H](CC(N)=O)NC(=O)[C@H](Cc2c[nH]c3ccccc23)NC(=O)[C@@H](NC(=O)[C@H](Cc2ccccc2)NC(=O)CN)CSSC[C@@H](C(=O)N[C@@H](CC(N)=O)C(=O)O)NC(=O)[C@H](CCCNC(=N)N)NC(=O)[C@H](CCCNC(=N)N)NC(=O)[C@H](Cc2c[nH]cn2)NC(=O)[C@@H]2CSSC[C@H](NC1=O)C(=O)N[C@@H](C(C)C)C(=O)N[C@@H](Cc1ccc(O)cc1)C(=O)N[C@@H](CCCNC(=N)N)C(=O)N[C@@H](CC(N)=O)C(=O)NCC(=O)N[C@@H](C(C)C)C(=O)N[C@@H](CCCNC(=N)N)C(=O)N[C@@H](C(C)C)C(=O)N2` [compound 262] (H-GFCWNICVYRNGVRVCHRRCN-OH; disulfide 3-20, 7-16 (inferred); N-terminus and C-terminus assumed) here?
A: 0.12

Q: Which fraction unbound does the source give for `CC(C)C[C@@H]1NC(=O)[C@H](CC(N)=O)NC(=O)[C@H](Cc2c[nH]c3ccccc23)NC(=O)[C@@H](NC(=O)[C@H](Cc2ccccc2)NC(=O)CN)CSSC[C@@H](C(=O)N[C@@H](CC(N)=O)C(=O)O)NC(=O)[C@H](CCCNC(=N)N)NC(=O)[C@H](CCCNC(=N)N)NC(=O)[C@H](Cc2c[nH]cn2)NC(=O)[C@@H]2CSSC[C@H](NC1=O)C(=O)N[C@@H](C(C)C)C(=O)N[C@@H](Cc1ccc(O)cc1)C(=O)N[C@@H](CCCNC(=N)N)C(=O)N[C@@H](CC(N)=O)C(=O)NCC(=O)N[C@@H](C(C)C)C(=O)N[C@@H](CCCNC(=N)N)C(=O)N[C@@H](C(C)C)C(=O)N2` [compound 263] (H-GFCWNLCVYRNGVRVCHRRCN-OH; disulfide 3-20, 7-16 (inferred); N-terminus and C-terminus assumed) here?
A: 0.2
